Assay results from BigSolDB 2.1.

Q: Which solubility (mole fraction) (in 1,4-dioxane, 278.25 K) does the source give for `Cc1ccc2ccccc2c1` here?
A: 0.468

Q: And the solubility (mole fraction) (in 1,4-dioxane, 283.25 K)?
A: 0.508

Q: What about the solubility (mole fraction) (in 1,4-dioxane, 288.35 K) of the same compound?
A: 0.575

Q: And the solubility (mole fraction) (in 1,4-dioxane, 293.25 K)?
A: 0.65

Q: And the solubility (mole fraction) (in 1,4-dioxane, 298.35 K)?
A: 0.726

Q: What about the solubility (mole fraction) (in 1,4-dioxane, 303.25 K) of the same compound?
A: 0.817

Q: What about the solubility (mole fraction) (in acetone, 278.45 K) of the same compound?
A: 0.218

Q: What about the solubility (mole fraction) (in acetone, 283.25 K) of the same compound?
A: 0.286

Q: What about the solubility (mole fraction) (in acetone, 288.35 K) of the same compound?
A: 0.368

Q: And the solubility (mole fraction) (in acetone, 293.25 K)?
A: 0.484

Q: And the solubility (mole fraction) (in acetone, 298.35 K)?
A: 0.588

Q: What about the solubility (mole fraction) (in acetone, 303.25 K) of the same compound?
A: 0.741

Q: And the solubility (mole fraction) (in ethanol, 278.25 K)?
A: 0.0389

Q: And the solubility (mole fraction) (in ethanol, 283.25 K)?
A: 0.058

Q: What about the solubility (mole fraction) (in ethanol, 288.35 K) of the same compound?
A: 0.109

Q: And the solubility (mole fraction) (in ethanol, 293.25 K)?
A: 0.148

Q: And the solubility (mole fraction) (in ethanol, 298.35 K)?
A: 0.287

Q: What about the solubility (mole fraction) (in ethanol, 303.25 K) of the same compound?
A: 0.458

Q: What about the solubility (mole fraction) (in ethylene glycol, 278.25 K) of the same compound?
A: 0.00742

Q: And the solubility (mole fraction) (in ethylene glycol, 283.25 K)?
A: 0.00811

Q: And the solubility (mole fraction) (in ethylene glycol, 288.35 K)?
A: 0.00864

Q: What about the solubility (mole fraction) (in ethylene glycol, 293.25 K) of the same compound?
A: 0.00963

Q: And the solubility (mole fraction) (in ethylene glycol, 298.35 K)?
A: 0.0102

Q: And the solubility (mole fraction) (in ethylene glycol, 303.25 K)?
A: 0.0115

Q: What about the solubility (mole fraction) (in isopropanol, 278.25 K) of the same compound?
A: 0.0276

Q: And the solubility (mole fraction) (in isopropanol, 283.25 K)?
A: 0.0508

Q: What about the solubility (mole fraction) (in isopropanol, 288.35 K) of the same compound?
A: 0.077

Q: What about the solubility (mole fraction) (in isopropanol, 293.25 K) of the same compound?
A: 0.133

Q: What about the solubility (mole fraction) (in isopropanol, 298.35 K) of the same compound?
A: 0.233

Q: And the solubility (mole fraction) (in isopropanol, 303.25 K)?
A: 0.43

Q: And the solubility (mole fraction) (in n-butanol, 278.25 K)?
A: 0.0596

Q: What about the solubility (mole fraction) (in n-butanol, 283.25 K) of the same compound?
A: 0.0794

Q: And the solubility (mole fraction) (in n-butanol, 288.35 K)?
A: 0.13

Q: What about the solubility (mole fraction) (in n-butanol, 293.25 K) of the same compound?
A: 0.223

Q: And the solubility (mole fraction) (in n-butanol, 298.35 K)?
A: 0.37

Q: And the solubility (mole fraction) (in n-butanol, 303.25 K)?
A: 0.68

Q: What about the solubility (mole fraction) (in n-butyl acetate, 278.15 K) of the same compound?
A: 0.621

Q: And the solubility (mole fraction) (in n-butyl acetate, 283.15 K)?
A: 0.673

Q: And the solubility (mole fraction) (in n-butyl acetate, 288.15 K)?
A: 0.729

Q: And the solubility (mole fraction) (in n-butyl acetate, 293.15 K)?
A: 0.787

Q: And the solubility (mole fraction) (in n-butyl acetate, 298.15 K)?
A: 0.849

Q: And the solubility (mole fraction) (in n-butyl acetate, 303.15 K)?
A: 0.951

Q: What about the solubility (mole fraction) (in n-heptane, 278.15 K) of the same compound?
A: 0.502

Q: What about the solubility (mole fraction) (in n-heptane, 283.15 K) of the same compound?
A: 0.579

Q: And the solubility (mole fraction) (in n-heptane, 288.15 K)?
A: 0.65

Q: And the solubility (mole fraction) (in n-heptane, 293.15 K)?
A: 0.726

Q: What about the solubility (mole fraction) (in n-heptane, 298.15 K) of the same compound?
A: 0.831

Q: What about the solubility (mole fraction) (in n-heptane, 303.15 K) of the same compound?
A: 0.906

Q: What about the solubility (mole fraction) (in n-hexane, 278.95 K) of the same compound?
A: 0.283

Q: What about the solubility (mole fraction) (in n-hexane, 283.25 K) of the same compound?
A: 0.348

Q: What about the solubility (mole fraction) (in n-hexane, 288.35 K) of the same compound?
A: 0.443

Q: And the solubility (mole fraction) (in n-hexane, 293.25 K)?
A: 0.55

Q: What about the solubility (mole fraction) (in n-hexane, 298.35 K) of the same compound?
A: 0.643

Q: What about the solubility (mole fraction) (in n-hexane, 303.25 K) of the same compound?
A: 0.811
